The record followed here is patent US4443459A, “α-Tocopheryl ester of 5-substituted picolinic acid and hypotensive composition containing it” (Banyu Pharmaceutical Co., Ltd., priority 1981, dated 1984).

For data set [1], the system named is Spontaneous hypertensive rats. The data set can be described thus: Hypotensive action in spontaneous hypertensive rats, oral (tail artery pressure, plethysmography; Table 1). In kind it is in vivo, rat (spontaneous hypertensive, male). Conditions: spontaneous hypertensive rats. From the text: (§1) dl-α-tocopheryl 5-butylpicolinate and dl-α-tocopherol were used after they were each dissolved in a suitable amount of ethyl ether, mixed with a solution containing 2% of Tween 80 and 2% of Span 40 and after removing ethyl ether, uniformly emulsified. 5-Butylpicolinic acid was used as a solution in 2% Tween 80+2% Span.
(§2) Spontaneous hypertensive rats (male, body weight 350 to 370 g) and Wistar rats with a normal blood pressure level (female, body weight 250 to270 g), three per group, were used. Without anesthesia, the pressure of the tail artery was measured by plethysmography.

The test system of the next data set is stomach of rats. Nature of the data set: Side-effects: gastric trouble after oral administration for 4 consecutive days. Particulars: 100 mg/kg. Type of data set: in vivo, rat. The protocol:
dl-α-Tocopheryl 5-butylpicolinate of the invention and 5-butylpicolinic acid as a control were administered orally to rats for 4 consecutive days at a dose of 300 mg/kg (90.9 mg/kg calculated for 5-butylpicolinic acid) and 100 mg/kg. Then, the stomach of each rat was incised and observed for the occurrence of a gastric trouble.

The nature of the next data set: in vivo. Particulars: mouse. The protocol: ddY-Strain female mice (body weight about 20 g), five per group, were used and each of the test compounds was orally or intraperitoneally administered, and two days after the administration, the number of dead mice was counted. From it, the acute toxicity LD50 of each of the compounds was determined by the Behrens-Kraerber method.

A further data set deals with Normotensive Wistar rats. Nature of the data set: Hypotensive action in normotensive Wistar rats, oral (tail artery pressure, plethysmography; Table 2). In kind it is in vivo, rat (Wistar, female). Particulars: 50 mg/kg oral, normotensive Wistar rats.
Description: as §1, §2

Turning to `CCCCc1ccc(C(=O)O)nc1` [B, 5-butylpicolinic acid, reference compound], the “Blood pressure lowering rate, 1h” value in data set [1] (3.125 mg/kg oral) amounted to 16.9%; in data set [1] (12.5 mg/kg oral), 35.7%; with Normotensive Wistar rats (1h), 27.0%. For the same molecule, the “Blood pressure lowering rate, 2h” value in data set [1] (3.125 mg/kg oral) is given as 0.7%; in data set [1] (12.5 mg/kg oral), 21.7%; with Normotensive Wistar rats (2h) it was 33.5%. The “Blood pressure lowering rate, 3h” value in data set [1] (3.125 mg/kg oral) turned out to be 0%; in data set [1] (12.5 mg/kg oral), 11.8%; with Normotensive Wistar rats (3h) it was 26.2%. Moreover, the “Blood pressure lowering rate, 4h” value (in data set [1] (3.125 mg/kg oral); in data set [1] (12.5 mg/kg oral); in the data set with Normotensive Wistar rats (4h)) was 0% throughout. The “occurrence of gastric trouble” value in the data set with stomach of rats is recorded as “Light degrees of edema, congestion, or bleeding were noted in the stomachs of all cases (five rats)”. In addition, the LD50 (usually the dose expected to kill half of the subjects tested) at 48 h in “in vivo” (ip) is 89 mg/kg; in “in vivo” (po), 180 mg/kg.
